Test results published in US20160137610A1, “Compounds that Modulate EGFR Activity and Methods for Treating or Preventing Conditions Therewith” (Gatekeeper Pharmaceuticals, Inc., priority 2010, published 2016).

What was measured:
Type in all cases: cell-based
[1] = molecular target: Ba/F3 cells EGFR L858R/T790M (Homo sapiens, UniProt P00533, T790M/L858R, cells depend on it); experiment: Cell proliferation/growth MTS assay in EGFR mutant Ba/F3 cells; settings: 72 hours, read-out: IC50 (nM) in Ba/F3 Cells, EGFR L858R/T790M
Ba/F3 cells EGFR L858R/T790M, sequence (P00533 whole entry T790M/L858R): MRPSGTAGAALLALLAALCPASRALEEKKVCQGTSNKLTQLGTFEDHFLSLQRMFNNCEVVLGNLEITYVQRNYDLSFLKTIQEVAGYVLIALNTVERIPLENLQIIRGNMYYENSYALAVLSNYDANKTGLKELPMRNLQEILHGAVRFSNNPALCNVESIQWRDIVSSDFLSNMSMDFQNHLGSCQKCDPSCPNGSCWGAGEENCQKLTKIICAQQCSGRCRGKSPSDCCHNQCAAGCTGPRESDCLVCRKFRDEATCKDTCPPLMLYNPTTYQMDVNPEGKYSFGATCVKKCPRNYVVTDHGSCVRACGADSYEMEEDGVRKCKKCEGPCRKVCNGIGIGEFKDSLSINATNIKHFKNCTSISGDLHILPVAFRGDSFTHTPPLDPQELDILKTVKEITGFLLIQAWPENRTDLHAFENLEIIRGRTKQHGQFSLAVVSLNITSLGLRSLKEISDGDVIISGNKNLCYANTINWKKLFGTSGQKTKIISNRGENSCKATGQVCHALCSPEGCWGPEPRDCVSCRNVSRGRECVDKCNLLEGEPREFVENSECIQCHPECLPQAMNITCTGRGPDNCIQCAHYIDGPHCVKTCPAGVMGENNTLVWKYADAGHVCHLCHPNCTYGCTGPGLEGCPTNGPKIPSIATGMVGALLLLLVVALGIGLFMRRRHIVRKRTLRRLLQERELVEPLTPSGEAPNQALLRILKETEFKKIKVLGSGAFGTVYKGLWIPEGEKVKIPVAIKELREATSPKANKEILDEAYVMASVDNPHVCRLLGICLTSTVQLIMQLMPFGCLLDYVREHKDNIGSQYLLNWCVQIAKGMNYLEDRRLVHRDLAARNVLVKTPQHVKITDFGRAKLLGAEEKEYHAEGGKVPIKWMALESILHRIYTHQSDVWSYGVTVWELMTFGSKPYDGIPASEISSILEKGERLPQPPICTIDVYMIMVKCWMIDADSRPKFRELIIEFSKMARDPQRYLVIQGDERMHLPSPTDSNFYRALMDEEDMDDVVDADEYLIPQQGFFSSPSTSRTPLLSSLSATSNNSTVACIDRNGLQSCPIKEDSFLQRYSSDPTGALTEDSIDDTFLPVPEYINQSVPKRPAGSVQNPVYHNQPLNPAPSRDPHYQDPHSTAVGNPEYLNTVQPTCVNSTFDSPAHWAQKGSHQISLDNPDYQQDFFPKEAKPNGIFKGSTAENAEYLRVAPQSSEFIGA
Excerpt: (§1) The EGFR and iERBB2 mutant Ba/F3 cells and the NIH-3T3 cells have been previously characterized (Engelman, J. A. et al. Cancer Res 67, 11924-32 (2007); Yuza, Y. et al. Cancer Biol Ther 6 (2007)). The EGFR C797S and the ERBB2 T798I mutations are introduced using site directed mutagenesis using the Quick Change Site-Directed Mutagenesis kit (Stratagene; La Jolla, Calif.) according to the manufacturer's instructions (Mukohara, T. et al. J Natl Cancer Inst 97, 1185-94 (2005)). The oligonucleotide sequences are available upon request. All constructs are confirmed by DNA sequencing. The constructs are shuttled into the retroviral vector JP1540 using the BD Creator™ System (BD Biosciences). Ba/F3 of NIH-3T3 cells are infected with retrovirus according to standard protocols, as described previously (Engelman, J. A. et al. Proc Natl Acad Sci USA 102, 3788-93 (2005); Zhao, J. J. et al. Cancer Cell 3, 483-95 (2003)). Stable populations are obtained by selection in puromycin (2 μg/ml).
(§2) Growth and inhibition of growth is assessed by MTS assay. This assay, a colorimetric method for determining the number of viable cells, is based on the bioreduction of 3-(4,5-dimethylthiazol-2-yl)-5-(3-carboxymethoxyphenyl)-2-(4-sulfophenyl)-2H-tetrazolium (MTS) by cells to a formazan product that is soluble in cell culture medium, can be detected spectrophotometrically and was performed according to previously established methods (Mukohara, T. et al. J Natl Cancer Inst 97, 1185-94 (2005); Paez, J. G. et al. Science 304, 1497 500 (2004); Engelman, J. A. et al. J Clin Invest 116, 2695-2706 (2006). NSCLC or Ba/F3 cells are exposed to treatment for 72 hours and the number of cells used per experiment determined empirically and has been previously established. All experimental points are set up in six to twelve wells and all experiments are repeated at least three times. […] The curves are fitted using a non-linear regression model with a sigmoidal dose response.
(§3) Activity of various compounds of the invention was determined in vitro in EGFR mutant Ba/F3 cells according to the procedures set forth in Example 1.

[2] = molecular target: Ba/F3 cells EGFR Del 19/T790M (Homo sapiens, UniProt P00533, DEL746-750/T790M, cells depend on it); experiment: as above; settings: 72 hours, read-out: IC50 (nM) in Ba/F3 Cells, EGFR Del 19/T790M
Ba/F3 cells EGFR Del 19/T790M, sequence (P00533 with tags, fused parts or gaps DEL746-750/T790M): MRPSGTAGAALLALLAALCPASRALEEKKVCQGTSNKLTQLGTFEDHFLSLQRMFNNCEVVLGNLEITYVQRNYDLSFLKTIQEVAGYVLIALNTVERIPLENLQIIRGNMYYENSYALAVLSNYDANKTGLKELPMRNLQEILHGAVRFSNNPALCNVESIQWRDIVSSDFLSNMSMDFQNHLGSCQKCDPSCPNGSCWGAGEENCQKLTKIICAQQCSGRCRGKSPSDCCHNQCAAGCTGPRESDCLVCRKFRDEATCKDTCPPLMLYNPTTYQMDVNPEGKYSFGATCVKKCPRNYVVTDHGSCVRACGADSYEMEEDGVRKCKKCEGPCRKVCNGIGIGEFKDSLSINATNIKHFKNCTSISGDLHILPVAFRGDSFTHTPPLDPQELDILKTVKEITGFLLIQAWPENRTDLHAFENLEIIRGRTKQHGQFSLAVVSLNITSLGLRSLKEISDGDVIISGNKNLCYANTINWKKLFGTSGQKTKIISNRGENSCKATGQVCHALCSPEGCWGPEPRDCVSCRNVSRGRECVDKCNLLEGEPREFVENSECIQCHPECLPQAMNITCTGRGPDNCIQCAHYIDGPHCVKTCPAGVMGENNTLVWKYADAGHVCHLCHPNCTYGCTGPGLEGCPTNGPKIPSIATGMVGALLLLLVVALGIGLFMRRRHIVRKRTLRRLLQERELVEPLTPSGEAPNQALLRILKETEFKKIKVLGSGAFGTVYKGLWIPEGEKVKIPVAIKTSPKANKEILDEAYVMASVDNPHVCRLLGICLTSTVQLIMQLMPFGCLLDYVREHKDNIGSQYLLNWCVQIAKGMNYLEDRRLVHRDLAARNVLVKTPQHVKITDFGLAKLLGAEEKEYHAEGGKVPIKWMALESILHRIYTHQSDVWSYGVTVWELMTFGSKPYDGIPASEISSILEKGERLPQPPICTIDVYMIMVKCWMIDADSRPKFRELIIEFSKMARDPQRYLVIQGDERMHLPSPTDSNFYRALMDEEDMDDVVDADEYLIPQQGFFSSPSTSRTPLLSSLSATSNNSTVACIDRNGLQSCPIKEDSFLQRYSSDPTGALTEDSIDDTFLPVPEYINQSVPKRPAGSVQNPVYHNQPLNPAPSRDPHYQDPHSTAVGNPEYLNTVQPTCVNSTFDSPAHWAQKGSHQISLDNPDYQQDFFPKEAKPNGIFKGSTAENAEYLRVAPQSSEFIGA
Excerpt: as §1, §2, §3

A549 (KRAS G12) = experiment: Cell proliferation/growth MTS assay in NSCLC cell lines; settings: Homo sapiens, 72 hours
Ba/F3 cells EGFR vIII = Ba/F3 cells EGFR vIII (Homo sapiens, UniProt P00533, DELINS30-297G, cells depend on it); experiment: Cell proliferation/growth MTS assay in EGFR mutant Ba/F3 cells; settings: 72 hours, read-out: IC50 (nM) in Ba/F3 Cells, EGFR vIII
Ba/F3 cells EGFR vIII, sequence (P00533 with tags, fused parts or gaps DELINS30-297G): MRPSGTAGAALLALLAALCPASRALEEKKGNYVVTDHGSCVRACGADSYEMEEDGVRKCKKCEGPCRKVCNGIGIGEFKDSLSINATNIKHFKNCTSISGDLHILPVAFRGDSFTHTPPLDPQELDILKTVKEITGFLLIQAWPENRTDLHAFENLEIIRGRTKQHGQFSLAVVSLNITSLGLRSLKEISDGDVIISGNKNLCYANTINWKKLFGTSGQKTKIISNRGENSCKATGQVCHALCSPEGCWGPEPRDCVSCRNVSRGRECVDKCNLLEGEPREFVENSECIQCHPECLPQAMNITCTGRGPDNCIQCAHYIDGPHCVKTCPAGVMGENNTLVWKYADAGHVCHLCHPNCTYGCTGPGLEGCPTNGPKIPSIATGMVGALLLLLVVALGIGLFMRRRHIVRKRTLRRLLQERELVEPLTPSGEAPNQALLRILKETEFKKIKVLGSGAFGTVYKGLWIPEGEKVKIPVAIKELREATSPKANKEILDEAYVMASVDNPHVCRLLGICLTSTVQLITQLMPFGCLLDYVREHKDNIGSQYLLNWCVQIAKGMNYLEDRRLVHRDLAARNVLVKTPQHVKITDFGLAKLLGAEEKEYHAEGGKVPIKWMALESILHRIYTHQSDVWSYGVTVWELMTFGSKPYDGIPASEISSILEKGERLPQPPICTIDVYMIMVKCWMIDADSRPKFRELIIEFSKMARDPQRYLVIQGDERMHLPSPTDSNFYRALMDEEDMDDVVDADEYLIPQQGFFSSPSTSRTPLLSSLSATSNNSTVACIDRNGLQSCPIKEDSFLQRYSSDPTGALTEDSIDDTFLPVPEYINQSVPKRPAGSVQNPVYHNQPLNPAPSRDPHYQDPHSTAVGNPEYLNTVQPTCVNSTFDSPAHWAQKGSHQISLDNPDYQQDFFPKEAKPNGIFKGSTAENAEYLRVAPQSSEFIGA
Excerpt: as §1, §2, §3

[3] = test system: PC9 GR (EGFR Del 19/T790M); experiment: Cell proliferation/growth MTS assay in NSCLC cell lines; settings: 72 hours
Excerpt: (§4) The EGFR mutant NSCLC cell lines HCC827 (del E746_A750), H3255 (L858R), HCC827 GR (del E746_A750/MET amplified), H1975 (L858R/T790M) and PC9 (del E746_A750) have been previously characterized (Amann., J. et al. Cancer Res 65, 226-35 (2005); Engelman, J. A. et al. Science 316, 1039-43 (2007); Ono, M. et al. Mol Cancer Ther 3, 465-72 (2004); Ogino, A. et al. Cancer Res 67, 7807-14 (2007)). The PC9 GR (del E746_A750/T790M) cells are generated and verified to contain del E746_A750 in cis with T790M. The ERBB2 amplified (Calu-3 and H1819) and mutant (H1781) are obtained from ATCC. […]
(§5) Growth and inhibition of growth is assessed by MTS assay. This assay, a colorimetric method for determining the number of viable cells, is based on the bioreduction of 3-(4,5-dimethylthiazol-2-yl)-5-(3-carboxymethoxyphenyl)-2-(4-sulfophenyl)-2H-tetrazolium (MTS) by cells to a formazan product that is soluble in cell culture medium, can be detected spectrophotometrically and was performed according to previously established methods (Mukohara, T. et al. J Natl Cancer Inst 97, 1185-94 (2005); Paez, J. G. et al. Science 304, 1497 500 (2004); Engelman, J. A. et al. J Clin Invest 116, 2695-2706 (2006). NSCLC or Ba/F3 cells are exposed to treatment for 72 hours and the number of cells used per experiment determined empirically and has been previously established. […]

PC9 (EGFR Del 19) = experiment: as above; settings: 72 hours
Excerpt: as §4, §5

| SMILES | GI50 [1] [nM] | GI50 [2] [nM] | IC50 (A549 (KRAS G12)) [nM] | GI50 (Ba/F3 cells EGFR vIII) [nM] | IC50 [3] [nM] | IC50 (PC9 (EGFR Del 19)) [nM] |
| --- | --- | --- | --- | --- | --- | --- |
| C=CC(=O)Nc1cccc(Nc2ncc(Cl)c(Nc3ccccc3S(=O)(=O)C(C)C)n2)c1 [Compound XIII-4, N-(3-((5-chloro-4-((2-(isopropylsulfonyl)phenyl)amino)pyrimidin-2-yl)amino)phenyl)acrylamide] | 17 | 7 | – | – | – | – |
| C=CC(=O)Nc1ccc(OC)c(Nc2ncc(Cl)c(Nc3ccccc3C(=O)NC)n2)c1 [Compound XIII-2, 2-((2-((5-acrylamido-2-methoxyphenyl)amino)-5-chloropyrimidin-4-yl)amino)-N-methylbenzamide] | 65 | 56 | > 3300 | 570 | 104 | 118 |
| C=CC(=O)Nc1cccc(Nc2ncc(Cl)c(Nc3ccccc3C(=O)NC)n2)c1 [Compound XIII-1, 2-((2-((3-acrylamidophenyl)amino)-5-chloropyrimidin-4-yl)amino)-N-methylbenzamide] | 6 | 3 | 814 | 3 | – | – |
| C=CC(=O)Nc1cccc(CNc2ncc(Cl)c(Nc3ccccc3S(=O)(=O)C(C)C)n2)c1 [Compound XIII-3, N-(3-(((5-chloro-4-((2-(isopropylsulfonyl)phenyl)amino)pyrimidin-2-yl)amino)methyl)phenyl)acrylamide] | 721 | 670 | – | – | – | – |
| C=CC(=O)Nc1cccc(Nc2ncc(Cl)c(Nc3ccccc3S(=O)(=O)NC)n2)c1 [Compound XIII-5, N-(3-((5-chloro-4-((2-(N-methylsulfamoyl)phenyl)amino)pyrimidin-2-yl)amino)phenyl)acrylamide] | 9 | 11 | – | – | – | – |
